Test results published in article PMC8313942, “Lipase from new isolate Bacillus cereus ATA179: optimization of production conditions, partial purification, characterization and its potential in the detergent industry” (Turkish Journal of Biology, 2021).

Tested on: T1, lipase from Bacillus cereus ATA179
T1 construct: gene extracellular lipase; 47 kDa by SDS-PAGE
Experiment: lipase activity at varied tributyrin, Lineweaver-Burk plot
Type: biochemical
Conditions: tributyrin 0.1-1.2 mM; partially purified enzyme; pH and temperature of the kinetic assay not given

How did the Km turn out when `CCCC(=O)OCC(COC(=O)CCC)OC(=O)CCC` [tributyrin] was run?
Its Km is 110 µM.
